Measured values reported in patent US9073967B2, “High salt-resistance antibacterial peptide and method for producing the same” (NATIONAL TSING HUA UNIVERSITY, priority 2011, dated 2015).
Where a SMILES comes first, the peptide text is derived from it.

Columns and labels:
S. aureus ATCC 25923 [1] = test: Antibacterial ability in different salt (NaCl) concentration, LYM medium
Description: (§4) All bacteria strains of above microbes were cultured in LYM medium. […] The NaCl concentrations in LYM were divided into four groups of 50 mM, 100 mM, 200 mM, 300 mM and the microbes were cultured in the four group of LYM and diluted to a 10^4 CFU/ml bacterial solution. Then added 100 μl of the bacterial solution into 96-well culture dish and added different concentration of antibacterial peptides P113, Phe-P113, Nal-P113 or Bip-P113 to evaluate the antibacterial ability in 50 mM, 100 mM, 200 mM, 300 mM concentration of NaCl. (Note: In addition to NaCl, the LYM medium also contains 5.4 mM KCl, 5.6 mM Na2HPO4, 0.5 mM MgSO4, and 1.0 mM sodium citrate. Besides, 0.4 mg of ZnCl2, 2.0 mg of FeCl3.6H2O, 0.1 mg of CuSO4.5H2O, 0.1 mg of MnSO4.H2O, 0.1 mg of Na2B4O7.10H2O, 700 mg of amino acid mixtures without tryptophan (Clontech), and 20 mg of L-Tryptophan were added per liter of medium. Then added moderate amount of glucose, amino acid, and vitamins mixture from the RPM1-1640 Select-Amine Kit)

P. arugenosa ATCC 27853 [2] = test: Antibacterial ability in different MgCl2 concentration; format: cell-based
[3] = test system: Staphylococcus aureus strains ATCC 25923; test: Antibacterial activity assay, NCCLS microdilution MIC in MHB; format: cell-based
From the text: (§1) For testing the antibacterial ability of Phe-P113, Nal-P113 and Bip-P113 in different salt concentration, we use Antibacterial activity assay to perform the test. Three bacteria strains are used: Eschericha coli strains (ATCC 25922), Staphylococcus aureus strains (ATCC 25923, 29213 and 19636, methicillin-resistant) and Pseudomonas aeruginosa strains (ATCC 27853 and 9027, ampicillin-resistant).
(§2) The microdilution method of National Committee for Clinical Laboratory Standards (NCCLS) is used to evaluate ‘The minimal inhibition concentration (MIC)’. The minimum concentration that can inhibit 90% or more microbes is the ‘minimal inhibition concentration’.
(§3) In the microdilution method, the 1 μl peptide solution (The concentration is between the range of 5000 μg/ml to 78.1 μg/ml) and the 99 μl inoculums (5×10^5 CFU/ml) is mixed incubated in 96-well culture dish coated with polyethylene under 37° C. for 16 hr. Then evaluated the turbidity in O.D.600 by ELISA plate reader (Thermo Max, Molecular Devices, Sunnyvale, Calif.). Take the Muller-Hinton Broth (MHB) and inoculums suspension with adding peptides as negative and positive control group relatively. The result of MIC is the minimum concentration of peptides that can inhibit the bacteria growth (equal to or more than 90%).

[4] = test system: Staphylococcus aureus strains ATCC 19636; test: as above; format: cell-based
From the text: as §1, §2, §3

[5] = test system: Eschericha coli strains ATCC 25922; test: as above; format: cell-based
From the text: as §1, §2, §3

[6] = test system: Staphylococcus aureus strains ATCC 29213; test: as above; format: cell-based
From the text: as §1, §2, §3

[7] = test system: Pseudomonas aeruginosa strains ATCC 27853; test: as above; format: cell-based
From the text: as §1, §2, §3

[8] = test system: Pseudomonas aeruginosa strains ATTC 9027; test: as above; format: cell-based
From the text: as §1, §2, §3

P. arugenosa ATCC 27853 [9] = test: Antibacterial ability in different salt (NaCl) concentration, LYM medium
Description: as §4

S. aureus ATCC 19636 [10] = test: as above
Description: as §4

E. coli ATCC 25922 [11] = test: Antibacterial ability in different MgCl2 concentration; format: cell-based
S. aureus ATCC 19636 [12] = test: as above; format: cell-based
P. arugenosa ATCC 9027 [13] = test: Antibacterial ability in different salt (NaCl) concentration, LYM medium
Description: as §4

E. coli ATCC 25922 [14] = test: as above
Description: as §4

S. aureus ATCC 29213 [15] = test: as above
Description: as §4

S. aureus ATCC 25923 [16] = test: Antibacterial ability in different MgCl2 concentration; format: cell-based
S. aureus ATCC 29213 [17] = test: as above; format: cell-based
P. arugenosa ATCC 9027 [18] = test: as above; format: cell-based

C[C@H](N)C(=O)N[C@@H](CCCCN)C(=O)N[C@@H](CCCNC(=N)N)C(=O)N[C@@H](Cc1c[nH]cn1)C(=O)N[C@@H](Cc1c[nH]cn1)C(=O)NCC(=O)N[C@@H](Cc1ccc(O)cc1)C(=O)N[C@@H](CCCCN)C(=O)N[C@@H](CCCNC(=N)N)C(=O)N[C@@H](CCCCN)C(=O)N[C@@H](Cc1ccccc1)C(=O)N[C@@H](Cc1c[nH]cn1)C(N)=O [P113, AKRHHGYKRKFH-NH2 (SEQ ID NO: 1)] (H-AKRHHGYKRKFH-NH2; N-terminus assumed)
antibacterial ability (MIC) (S. aureus ATCC 25923 [1]; NaCl 50 mM): 50 | antibacterial ability (MIC) (S. aureus ATCC 25923 [1]; NaCl 100 mM): 50 | antibacterial ability (MIC) (S. aureus ATCC 25923 [1]; NaCl 200 mM): >50 | antibacterial ability (MIC) (S. aureus ATCC 25923 [1]; NaCl 300 mM): >50 | antibacterial ability (MIC) (P. arugenosa ATCC 27853 [2]; Control group): 25 µg/mL | antibacterial ability (MIC) (P. arugenosa ATCC 27853 [2]; MgCl2 0.5 mM): 50 µg/mL | antibacterial ability (MIC) (P. arugenosa ATCC 27853 [2]; MgCl2 1.5 mM): 50 µg/mL | antibacterial ability (MIC) (P. arugenosa ATCC 27853 [2]; MgCl2 2.5 mM): 50 µg/mL | minimal inhibition concentration (MIC) [3]: >50 | minimal inhibition concentration (MIC) [4]: >50 | minimal inhibition concentration (MIC) [5]: >50 | minimal inhibition concentration (MIC) [6]: >50 | minimal inhibition concentration (MIC) [7]: >50 | minimal inhibition concentration (MIC) [8]: >50 | antibacterial ability (MIC) (P. arugenosa ATCC 27853 [9]; NaCl 50 mM): 50 | antibacterial ability (MIC) (P. arugenosa ATCC 27853 [9]; NaCl 100 mM): 50 | antibacterial ability (MIC) (P. arugenosa ATCC 27853 [9]; NaCl 200 mM): >50 | antibacterial ability (MIC) (P. arugenosa ATCC 27853 [9]; NaCl 300 mM): >50 | antibacterial ability (MIC) (S. aureus ATCC 19636 [10]; NaCl 50 mM): 50 | antibacterial ability (MIC) (S. aureus ATCC 19636 [10]; NaCl 100 mM): 50 | antibacterial ability (MIC) (S. aureus ATCC 19636 [10]; NaCl 200 mM): >50 | antibacterial ability (MIC) (S. aureus ATCC 19636 [10]; NaCl 300 mM): >50 | antibacterial ability (MIC) (E. coli ATCC 25922 [11]; Control group): 12.5 µg/mL | antibacterial ability (MIC) (E. coli ATCC 25922 [11]; MgCl2 0.5 mM): 12.5 µg/mL | antibacterial ability (MIC) (E. coli ATCC 25922 [11]; MgCl2 1.5 mM): 25 µg/mL | antibacterial ability (MIC) (E. coli ATCC 25922 [11]; MgCl2 2.5 mM): 25 µg/mL | antibacterial ability (MIC) (S. aureus ATCC 19636 [12]; Control group): 50 µg/mL | antibacterial ability (MIC) (S. aureus ATCC 19636 [12]; MgCl2 0.5 mM): > 50 µg/mL | antibacterial ability (MIC) (S. aureus ATCC 19636 [12]; MgCl2 1.5 mM): > 50 µg/mL | antibacterial ability (MIC) (S. aureus ATCC 19636 [12]; MgCl2 2.5 mM): > 50 µg/mL | antibacterial ability (MIC) (P. arugenosa ATCC 9027 [13]; NaCl 50 mM): 50 | antibacterial ability (MIC) (P. arugenosa ATCC 9027 [13]; NaCl 100 mM): 50 | antibacterial ability (MIC) (P. arugenosa ATCC 9027 [13]; NaCl 200 mM): >50 | antibacterial ability (MIC) (P. arugenosa ATCC 9027 [13]; NaCl 300 mM): >50 | antibacterial ability (MIC) (E. coli ATCC 25922 [14]; NaCl 50 mM): 50 | antibacterial ability (MIC) (E. coli ATCC 25922 [14]; NaCl 100 mM): 50 | antibacterial ability (MIC) (E. coli ATCC 25922 [14]; NaCl 200 mM): >50 | antibacterial ability (MIC) (E. coli ATCC 25922 [14]; NaCl 300 mM): >50 | antibacterial ability (MIC) (S. aureus ATCC 29213 [15]; NaCl 50 mM): 50 | antibacterial ability (MIC) (S. aureus ATCC 29213 [15]; NaCl 100 mM): 50 | antibacterial ability (MIC) (S. aureus ATCC 29213 [15]; NaCl 200 mM): >50 | antibacterial ability (MIC) (S. aureus ATCC 29213 [15]; NaCl 300 mM): >50 | antibacterial ability (MIC) (S. aureus ATCC 25923 [16]; Control group): 12.5 µg/mL | antibacterial ability (MIC) (S. aureus ATCC 25923 [16]; MgCl2 0.5 mM): 50 µg/mL | antibacterial ability (MIC) (S. aureus ATCC 25923 [16]; MgCl2 1.5 mM): 50 µg/mL | antibacterial ability (MIC) (S. aureus ATCC 25923 [16]; MgCl2 2.5 mM): 50 µg/mL | antibacterial ability (MIC) (S. aureus ATCC 29213 [17]; Control group): 12.5 µg/mL | antibacterial ability (MIC) (S. aureus ATCC 29213 [17]; MgCl2 0.5 mM): 12.5 µg/mL | antibacterial ability (MIC) (S. aureus ATCC 29213 [17]; MgCl2 1.5 mM): 25 µg/mL | antibacterial ability (MIC) (S. aureus ATCC 29213 [17]; MgCl2 2.5 mM): 25 µg/mL | antibacterial ability (MIC) (P. arugenosa ATCC 9027 [18]; Control group): 12.5 µg/mL | antibacterial ability (MIC) (P. arugenosa ATCC 9027 [18]; MgCl2 0.5 mM): > 50 µg/mL | antibacterial ability (MIC) (P. arugenosa ATCC 9027 [18]; MgCl2 1.5 mM): > 50 µg/mL | antibacterial ability (MIC) (P. arugenosa ATCC 9027 [18]; MgCl2 2.5 mM): > 50 µg/mL
